Calls of active or inactive are those of the source. No cut-off for these calls is given here. Some results are limits rather than exact numbers.

The values below come from ChEMBL document CHEMBL4431331, “Design and evaluation of 1,7-naphthyridones as novel KDM5 inhibitors” (Bioorg Med Chem Lett, 2016).

For series [1], the target named is T1, Lysine-specific demethylase 5A (Homo sapiens, UniProt P29375). The experiment in a line: Inhibition of full length human KDM5A using biotinylated H2NART(KMe3)QTARKSTGGKAPRKQLA-NTPEG-biotin as substrate after 30 to 40 mins using 1 uM of 2-OG as co-substrate by TR-FRET assay.
Series [2] is described as follows: Dissociation constant, pKa of the compound. The class given is physicochemical.
The target of series [3] is Lysine-specific demethylase 5C (Homo sapiens, UniProt P41229). The experiment in a line: Inhibition of full length human KDM5C using biotinylated H2NART(KMe3)QTARKSTGGKAPRKQLA-NTPEG-biotin as substrate after 30 to 40 mins using 1 uM of 2-OG as co-substrate by TR-FRET assay.
Series [4] has as its target T2, Lysine-specific demethylase 2B (Homo sapiens, UniProt Q8NHM5).
T2 sequence (Q8NHM5 whole entry): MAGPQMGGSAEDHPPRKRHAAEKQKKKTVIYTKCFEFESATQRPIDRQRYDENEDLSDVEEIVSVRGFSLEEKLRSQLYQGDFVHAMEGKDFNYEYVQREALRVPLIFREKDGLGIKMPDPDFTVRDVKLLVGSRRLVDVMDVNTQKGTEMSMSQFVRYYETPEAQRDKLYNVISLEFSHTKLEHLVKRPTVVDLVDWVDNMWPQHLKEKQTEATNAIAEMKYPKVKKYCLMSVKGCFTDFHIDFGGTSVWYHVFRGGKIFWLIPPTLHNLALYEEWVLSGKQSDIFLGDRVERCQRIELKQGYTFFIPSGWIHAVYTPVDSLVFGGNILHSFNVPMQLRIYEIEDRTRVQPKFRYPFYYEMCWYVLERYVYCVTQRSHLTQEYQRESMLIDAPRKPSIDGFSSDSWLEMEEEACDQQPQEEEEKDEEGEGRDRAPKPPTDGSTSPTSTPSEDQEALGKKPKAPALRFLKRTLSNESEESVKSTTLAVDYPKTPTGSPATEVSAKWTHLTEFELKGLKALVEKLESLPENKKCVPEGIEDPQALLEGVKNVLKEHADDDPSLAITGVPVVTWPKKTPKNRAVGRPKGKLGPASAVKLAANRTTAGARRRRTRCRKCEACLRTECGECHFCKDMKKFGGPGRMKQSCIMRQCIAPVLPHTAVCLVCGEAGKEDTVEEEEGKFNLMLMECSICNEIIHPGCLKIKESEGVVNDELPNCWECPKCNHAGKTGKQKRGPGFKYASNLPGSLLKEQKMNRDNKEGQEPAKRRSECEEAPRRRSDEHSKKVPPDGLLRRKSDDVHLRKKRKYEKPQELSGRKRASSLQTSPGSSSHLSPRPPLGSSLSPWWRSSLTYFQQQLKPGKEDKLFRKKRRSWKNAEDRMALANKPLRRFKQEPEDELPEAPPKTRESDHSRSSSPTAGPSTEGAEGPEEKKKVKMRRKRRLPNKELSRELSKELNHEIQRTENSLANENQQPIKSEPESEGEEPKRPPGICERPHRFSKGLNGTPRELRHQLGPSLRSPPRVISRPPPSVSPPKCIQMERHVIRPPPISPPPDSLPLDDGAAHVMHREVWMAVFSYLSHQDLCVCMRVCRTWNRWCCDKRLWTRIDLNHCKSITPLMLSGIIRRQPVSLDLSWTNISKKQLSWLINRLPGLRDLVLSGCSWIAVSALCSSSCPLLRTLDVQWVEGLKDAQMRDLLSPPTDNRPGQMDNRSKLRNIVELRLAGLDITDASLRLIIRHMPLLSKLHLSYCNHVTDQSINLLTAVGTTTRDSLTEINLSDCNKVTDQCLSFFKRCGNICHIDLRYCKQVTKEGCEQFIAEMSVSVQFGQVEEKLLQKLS
The experiment in a line: Inhibition of full length human KDM2B using biotinylated H2N-RKSAPATGGV(KMe2)KPHRYRPGTV-NTPEGBiot as substrate after 2 hrs using 0.3 uM of 2-OG as co-substrate by TR-FRET assay.

In series [5] the target is T3, Lysine-specific demethylase 4C (Homo sapiens, UniProt Q9H3R0).
T3 sequence (Q9H3R0 whole entry): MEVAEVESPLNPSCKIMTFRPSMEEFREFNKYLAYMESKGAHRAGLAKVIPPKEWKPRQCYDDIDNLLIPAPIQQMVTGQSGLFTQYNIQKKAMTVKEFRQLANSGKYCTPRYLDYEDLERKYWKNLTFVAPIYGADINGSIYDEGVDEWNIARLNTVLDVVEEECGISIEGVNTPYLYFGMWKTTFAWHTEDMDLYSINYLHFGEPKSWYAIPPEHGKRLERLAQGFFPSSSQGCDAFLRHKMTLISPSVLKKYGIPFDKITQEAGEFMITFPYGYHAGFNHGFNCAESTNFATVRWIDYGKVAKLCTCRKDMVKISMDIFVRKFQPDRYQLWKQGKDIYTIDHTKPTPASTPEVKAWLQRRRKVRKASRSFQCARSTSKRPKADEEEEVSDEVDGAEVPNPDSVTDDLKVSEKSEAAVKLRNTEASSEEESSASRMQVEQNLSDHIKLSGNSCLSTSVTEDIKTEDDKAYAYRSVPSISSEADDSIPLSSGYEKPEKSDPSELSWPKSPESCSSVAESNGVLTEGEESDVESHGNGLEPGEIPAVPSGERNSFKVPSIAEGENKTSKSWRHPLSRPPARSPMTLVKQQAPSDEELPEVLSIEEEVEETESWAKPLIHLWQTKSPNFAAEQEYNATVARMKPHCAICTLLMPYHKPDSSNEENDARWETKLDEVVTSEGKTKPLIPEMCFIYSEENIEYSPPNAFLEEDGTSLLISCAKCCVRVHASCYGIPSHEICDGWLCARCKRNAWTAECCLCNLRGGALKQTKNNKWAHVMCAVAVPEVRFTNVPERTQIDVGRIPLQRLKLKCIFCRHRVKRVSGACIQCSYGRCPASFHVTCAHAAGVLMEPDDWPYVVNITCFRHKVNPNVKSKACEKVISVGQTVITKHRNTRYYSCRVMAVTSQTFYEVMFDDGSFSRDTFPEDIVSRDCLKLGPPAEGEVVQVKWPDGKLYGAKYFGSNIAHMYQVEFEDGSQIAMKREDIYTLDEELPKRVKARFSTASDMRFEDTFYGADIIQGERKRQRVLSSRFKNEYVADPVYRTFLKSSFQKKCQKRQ
The experiment in a line: Inhibition of full length human KDM4C using biotinylated H2N-ARTKQTAR(KMe3)STGGKAPRKQLA-NTPEGBiot as substrate after 30 mins using 3 uM of 2-OG as co-substrate by TR-FRET assay.

In series [6] the target is T1, Lysine-specific demethylase 5A. The experiment in a line: Inhibition of KDM5A in human PC9 cells assessed as increase in H3K4me3 levels upto 30 uM after 4 days by HTRF assay. The class given is cell-based.
Series [7] concerns the target Lysine-specific demethylase 5B (Homo sapiens, UniProt Q9UGL1). The experiment in a line: Inhibition of full length human KDM5B using biotinylated H2NART(KMe3)QTARKSTGGKAPRKQLA-NTPEG-biotin as substrate after 30 to 40 mins using 2 uM of 2-OG as co-substrate by TR-FRET assay.
A short description of series [8]: Competitive inhibition of KDM5 (unknown origin) in presence of 2-OG. Details: species or system Homo sapiens.
Series [9] can be described thus: Hepatic clearance in human liver microsomes. The class given is ADME, Microsome.
Series [10] in a line: Apparent permeability from apical to basolateral side in MDCK cells. The format is ADME, cell-based, Canis lupus familiaris. Particulars: dog.
Series [11] can be described thus: Plasma protein binding in human. Particulars: read-out: PPB (converted). The class given is ADME, cell-free.
Series [12] is filed under the species Homo sapiens. The experiment in a line: Selectivity ratio of IC50 for full length human KDM4C to IC50 for full length human KDM5A.
Series [13] deals with T1, Lysine-specific demethylase 5A. The experiment in a line: Ratio of IC50 for full length human KDM5A using biotinylated H2NART(KMe3)QTARKSTGGKAPRKQLA-NTPEG-biotin as substrate and 10 uM of 2-OG as co-substrate to IC50 for full length human KDM5A using biotinylated H2NART(KMe3)QTARKSTGGKAPRKQLA-NTPEG-biotin as substrate and 1 uM of 2-OG as co-substrate.
The species named for series [14] is Homo sapiens. The experiment in a line: Selectivity ratio of IC50 for full length human KDM2B to IC50 for full length human KDM5A.
The target in series [15] is T1, Lysine-specific demethylase 5A. The experiment in a line: Inhibition of full length human KDM5A using biotinylated H2NART(KMe3)QTARKSTGGKAPRKQLA-NTPEG-biotin as substrate after 30 to 40 mins using 20 uM of 2-OG as co-substrate by TR-FRET assay.

T1 sequence (P29375 whole entry): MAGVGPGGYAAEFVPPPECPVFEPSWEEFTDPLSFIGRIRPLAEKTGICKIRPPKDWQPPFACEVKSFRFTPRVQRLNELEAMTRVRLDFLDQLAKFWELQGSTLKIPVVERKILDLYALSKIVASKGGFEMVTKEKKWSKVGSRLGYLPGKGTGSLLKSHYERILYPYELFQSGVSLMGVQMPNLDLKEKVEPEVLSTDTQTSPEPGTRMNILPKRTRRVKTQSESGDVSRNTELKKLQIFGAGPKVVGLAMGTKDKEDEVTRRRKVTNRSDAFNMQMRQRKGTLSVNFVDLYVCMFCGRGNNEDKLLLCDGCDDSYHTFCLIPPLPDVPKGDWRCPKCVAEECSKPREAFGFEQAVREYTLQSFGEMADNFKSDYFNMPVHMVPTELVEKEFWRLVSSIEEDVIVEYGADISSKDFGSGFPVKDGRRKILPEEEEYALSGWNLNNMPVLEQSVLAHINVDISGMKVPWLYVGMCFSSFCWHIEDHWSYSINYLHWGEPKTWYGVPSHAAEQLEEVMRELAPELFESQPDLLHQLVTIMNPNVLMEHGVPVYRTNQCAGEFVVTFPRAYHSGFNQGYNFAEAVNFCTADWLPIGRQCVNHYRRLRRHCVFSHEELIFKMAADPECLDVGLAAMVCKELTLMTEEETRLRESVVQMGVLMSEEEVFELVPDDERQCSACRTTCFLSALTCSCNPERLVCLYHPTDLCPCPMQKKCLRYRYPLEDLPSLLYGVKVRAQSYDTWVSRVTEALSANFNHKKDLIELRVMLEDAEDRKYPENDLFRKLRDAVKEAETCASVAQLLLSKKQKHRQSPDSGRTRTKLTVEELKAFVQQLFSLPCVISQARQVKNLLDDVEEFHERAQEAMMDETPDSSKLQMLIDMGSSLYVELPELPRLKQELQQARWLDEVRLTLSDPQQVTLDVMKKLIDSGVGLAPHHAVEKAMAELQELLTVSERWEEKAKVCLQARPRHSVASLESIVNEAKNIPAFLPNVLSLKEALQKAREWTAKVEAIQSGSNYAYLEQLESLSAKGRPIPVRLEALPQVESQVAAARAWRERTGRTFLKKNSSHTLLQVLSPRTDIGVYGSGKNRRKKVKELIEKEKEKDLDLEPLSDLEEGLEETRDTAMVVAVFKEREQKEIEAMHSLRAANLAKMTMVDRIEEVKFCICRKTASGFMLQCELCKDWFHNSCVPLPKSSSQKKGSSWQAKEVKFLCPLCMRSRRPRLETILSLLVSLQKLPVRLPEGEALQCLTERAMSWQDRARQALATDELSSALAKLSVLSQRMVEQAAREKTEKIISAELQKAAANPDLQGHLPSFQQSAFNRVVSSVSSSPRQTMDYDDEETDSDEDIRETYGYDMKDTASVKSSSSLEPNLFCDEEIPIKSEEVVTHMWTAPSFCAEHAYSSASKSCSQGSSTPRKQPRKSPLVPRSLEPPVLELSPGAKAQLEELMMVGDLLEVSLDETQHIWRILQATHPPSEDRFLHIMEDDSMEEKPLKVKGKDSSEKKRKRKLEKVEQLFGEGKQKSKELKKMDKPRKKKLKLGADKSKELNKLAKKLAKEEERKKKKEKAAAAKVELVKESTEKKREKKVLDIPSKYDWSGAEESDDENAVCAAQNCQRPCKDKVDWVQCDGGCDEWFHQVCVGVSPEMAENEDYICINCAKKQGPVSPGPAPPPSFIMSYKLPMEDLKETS
Lysine-specific demethylase 5B, sequence (Q9UGL1 whole entry): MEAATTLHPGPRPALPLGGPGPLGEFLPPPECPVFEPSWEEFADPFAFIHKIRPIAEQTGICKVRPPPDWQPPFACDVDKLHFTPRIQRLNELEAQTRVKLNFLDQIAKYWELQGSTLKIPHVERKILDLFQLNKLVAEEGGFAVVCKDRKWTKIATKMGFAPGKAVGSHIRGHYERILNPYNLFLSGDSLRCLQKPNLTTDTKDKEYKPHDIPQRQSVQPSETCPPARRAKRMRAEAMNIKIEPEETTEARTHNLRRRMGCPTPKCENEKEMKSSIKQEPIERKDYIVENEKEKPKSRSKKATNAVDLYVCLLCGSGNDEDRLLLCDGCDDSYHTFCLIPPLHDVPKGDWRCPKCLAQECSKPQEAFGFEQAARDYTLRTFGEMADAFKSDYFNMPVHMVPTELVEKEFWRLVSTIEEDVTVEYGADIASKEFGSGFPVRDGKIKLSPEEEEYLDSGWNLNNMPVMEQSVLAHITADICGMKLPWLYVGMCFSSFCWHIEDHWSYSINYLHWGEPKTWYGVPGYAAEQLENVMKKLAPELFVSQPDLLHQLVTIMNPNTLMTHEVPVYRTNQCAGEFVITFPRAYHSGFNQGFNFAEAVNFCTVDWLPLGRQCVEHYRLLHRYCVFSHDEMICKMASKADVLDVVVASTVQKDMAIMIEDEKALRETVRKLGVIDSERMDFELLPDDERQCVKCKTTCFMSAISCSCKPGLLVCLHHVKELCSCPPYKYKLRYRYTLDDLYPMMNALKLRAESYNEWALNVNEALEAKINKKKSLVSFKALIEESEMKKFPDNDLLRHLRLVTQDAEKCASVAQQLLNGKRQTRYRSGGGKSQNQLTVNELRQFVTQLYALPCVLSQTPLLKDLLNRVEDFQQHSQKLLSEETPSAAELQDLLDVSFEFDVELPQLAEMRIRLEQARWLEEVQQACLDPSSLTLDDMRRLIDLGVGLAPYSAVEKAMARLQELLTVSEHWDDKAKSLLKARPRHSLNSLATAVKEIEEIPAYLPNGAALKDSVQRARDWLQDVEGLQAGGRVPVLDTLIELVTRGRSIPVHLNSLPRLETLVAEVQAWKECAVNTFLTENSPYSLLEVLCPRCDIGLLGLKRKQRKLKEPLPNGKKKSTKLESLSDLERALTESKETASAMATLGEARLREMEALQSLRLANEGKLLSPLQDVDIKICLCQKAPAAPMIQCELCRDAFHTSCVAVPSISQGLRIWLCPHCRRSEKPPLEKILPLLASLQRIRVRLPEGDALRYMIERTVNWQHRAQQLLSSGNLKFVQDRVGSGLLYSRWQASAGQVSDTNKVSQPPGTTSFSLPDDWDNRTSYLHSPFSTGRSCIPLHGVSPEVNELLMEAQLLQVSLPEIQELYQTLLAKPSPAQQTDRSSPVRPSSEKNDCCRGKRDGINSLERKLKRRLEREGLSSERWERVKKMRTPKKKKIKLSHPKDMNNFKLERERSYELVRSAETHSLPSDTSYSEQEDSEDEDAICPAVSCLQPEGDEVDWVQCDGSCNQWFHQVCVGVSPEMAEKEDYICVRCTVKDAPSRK
Lysine-specific demethylase 5C, sequence (P41229 whole entry): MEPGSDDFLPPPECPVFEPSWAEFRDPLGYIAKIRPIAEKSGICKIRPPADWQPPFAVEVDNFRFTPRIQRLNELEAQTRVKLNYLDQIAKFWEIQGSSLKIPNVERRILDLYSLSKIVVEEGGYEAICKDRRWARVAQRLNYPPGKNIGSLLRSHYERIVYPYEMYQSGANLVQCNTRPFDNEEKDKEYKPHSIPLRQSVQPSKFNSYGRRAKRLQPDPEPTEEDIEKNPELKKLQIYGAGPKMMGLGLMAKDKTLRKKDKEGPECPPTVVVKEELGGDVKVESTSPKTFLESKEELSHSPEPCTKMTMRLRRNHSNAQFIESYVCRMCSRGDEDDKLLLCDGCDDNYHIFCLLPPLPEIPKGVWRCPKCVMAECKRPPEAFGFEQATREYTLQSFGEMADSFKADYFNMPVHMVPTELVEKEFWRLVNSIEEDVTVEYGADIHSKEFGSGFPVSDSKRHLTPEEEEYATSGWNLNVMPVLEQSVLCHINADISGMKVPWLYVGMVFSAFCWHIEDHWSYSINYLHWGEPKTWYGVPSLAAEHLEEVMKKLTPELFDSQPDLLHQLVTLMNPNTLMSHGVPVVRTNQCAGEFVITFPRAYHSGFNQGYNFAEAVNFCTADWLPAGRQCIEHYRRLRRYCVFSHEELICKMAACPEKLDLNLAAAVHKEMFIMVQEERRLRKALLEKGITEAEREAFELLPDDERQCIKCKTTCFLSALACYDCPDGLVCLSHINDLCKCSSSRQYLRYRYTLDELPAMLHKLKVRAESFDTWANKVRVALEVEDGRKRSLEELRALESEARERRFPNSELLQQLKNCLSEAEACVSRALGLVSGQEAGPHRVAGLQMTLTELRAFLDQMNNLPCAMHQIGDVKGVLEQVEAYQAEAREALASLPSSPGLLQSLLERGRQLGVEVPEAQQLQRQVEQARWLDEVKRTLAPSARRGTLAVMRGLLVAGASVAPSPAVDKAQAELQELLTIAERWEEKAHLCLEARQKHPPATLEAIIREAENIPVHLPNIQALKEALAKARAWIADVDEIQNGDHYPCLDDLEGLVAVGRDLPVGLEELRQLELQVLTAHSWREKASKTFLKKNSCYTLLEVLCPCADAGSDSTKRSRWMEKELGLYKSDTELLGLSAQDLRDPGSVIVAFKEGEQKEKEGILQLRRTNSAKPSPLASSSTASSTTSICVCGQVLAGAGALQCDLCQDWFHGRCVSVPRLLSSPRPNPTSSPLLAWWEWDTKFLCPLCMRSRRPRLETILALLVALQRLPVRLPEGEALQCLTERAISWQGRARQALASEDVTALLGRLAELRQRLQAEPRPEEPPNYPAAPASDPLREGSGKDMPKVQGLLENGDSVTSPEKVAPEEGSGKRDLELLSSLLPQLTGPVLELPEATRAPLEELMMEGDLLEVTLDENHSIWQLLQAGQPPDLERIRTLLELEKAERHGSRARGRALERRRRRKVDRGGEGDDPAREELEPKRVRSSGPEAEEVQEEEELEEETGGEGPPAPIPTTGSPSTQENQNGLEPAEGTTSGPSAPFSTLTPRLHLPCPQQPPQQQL

`CNC(=O)c1c(O)c2ccncc2[nH]c1=O` came in with an IC50 in series [1] of 70 nM.

In series [1], `O=C(c1c(O)c2ccncc2[nH]c1=O)N1CCCC1` displayed an IC50 of over 25000 nM.

In turn, `O=C(NCc1ccccc1)c1c(O)c2ccncc2[nH]c1=O` registered an IC50 in series [1] of over 25000 nM.

The compound `N#Cc1c(O)c2ccncc2[nH]c1=O` had a pKa in [2] of 3.5. In addition, the IC50 in series [3] is 170 nM; in [4] it was over 25000 nM; in series [5], over 25000 nM; in series [1] it was 25 nM; in series [7] it was 70 nM. Further, the inhibition result in series [6] is “inactive”.

Turning to `CCOC(=O)c1c(O)nc2ccccc2c1O`, the IC50 in [1] is over 25000 nM.

The compound `CCOC(=O)c1c(O)c2cccnc2[nH]c1=O` returned an IC50 in [1] of over 25000 nM.

Turning to `CC(C)c1c(-c2ccccc2)[nH]c2c(C#N)cnn2c1=O`, the IC50 in [8] is 10 nM.

Take `CC(C)NC(=O)c1c(O)c2ccncc2[nH]c1=O`: the IC50 in series [1] worked out at 400 nM.

In turn, `N#Cc1c(O)c2ccccc2[nH]c1=O` yielded a half-maximal inhibitory concentration (IC50) in [1] of over 25000 nM.

In series [1], `CCc1c(O)c2ccncc2n(CC)c1=O` yielded an IC50 of 3800 nM.

On to `CN(C)C(=O)c1c(O)c2ccncc2[nH]c1=O`, for which, in [1], the 50% inhibitory concentration (IC50) worked out at 5300 nM.

In [2], `CCNC(=O)c1c(O)c2ccncc2[nH]c1=O` had a pKa of 6.4. For the same compound, the CLhep predicted in series [9] is 11.5 mL/min/kg. In [1], it took 50 nM to reach half-maximal inhibition (IC50). In series [6], the inhibition entry is “inactive”. In addition, the Papp A→B in series [10] is 15.8 ×10⁻⁶ cm/s. The fraction unbound in series [11] is 0.3.

The compound `O=c1[nH]c(C(F)(F)F)nc2cnccc12` yielded a pKa in series [2] of 4.6. Also, the IC50 in series [4] is over 25000 nM; in series [5], 1900 nM; in series [1], 160 nM. The values for the Ratio IC50 (in the series filed under Homo sapiens [12]; in [13]; in the series filed under Homo sapiens [14]) were 12, 9 and over 150, respectively.

As for `CCc1c(O)c2ccncc2[nH]c1=O`, the half-inhibitory concentration (IC50) in series [15] was determined as 2100 nM; in [1], 230 nM.

With `CCN(C)C(=O)c1c(O)c2ccncc2[nH]c1=O`, the IC50 in series [1] was 700 nM.

As for `O=c1cc(O)c2ccncc2[nH]1`, the IC50 in series [1] amounted to 6700 nM.
